Experimental data from patent US20110177105A1, “Novel Selective Inhibitors of Ubiquitin Specific Protease 7, the Pharmaceutical Compositions Thereof and Their Therapeutic Applications” (priority 2010, published 2011).
pIC50: −log10 of the molar value.

Legend:
Format in all cases: biochemical
[1] = target: T1, UCH-L3 (Homo sapiens, UniProt P15374); assay: UCH-L3 activity assay (Ub-AMC); conditions: 300 nM Ub-AMC, 13 pM enzyme
T1 sequence (P15374 1-230): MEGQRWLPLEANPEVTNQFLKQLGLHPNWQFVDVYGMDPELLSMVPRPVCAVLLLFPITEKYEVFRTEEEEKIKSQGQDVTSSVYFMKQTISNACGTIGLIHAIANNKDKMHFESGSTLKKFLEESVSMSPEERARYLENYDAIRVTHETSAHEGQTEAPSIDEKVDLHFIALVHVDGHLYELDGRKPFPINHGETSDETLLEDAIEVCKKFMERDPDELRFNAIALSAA
Method: UCH-L3 was diluted in USP buffer (50 mM Tris HCl; 0.5 mM EDTA; 5 mM DTT; 0.01% Triton X-100; Bovine Serum Albumin 0.05 mg·ml^−1 pH 7.6). Compounds stocks (100 mM) were stored at −20° C. in DMSO. Compounds were tested at different concentrations: from 200 μM to 91 nM.
(§1) Reactions were performed as duplicates in Black 384 well plates (small volume microplates; Greiner; 10 μl final reaction volume). The substrate concentration for UCH-L3 was 300 nM Ub-AMC (Boston Biochem). The concentration of the enzyme (UCH-L3) in specificity assays was 13 pM. The concentrations were determined in order to perform specificity assays under initial velocities at fixed substrate concentration. Compounds were pre-incubated with enzymes for 30 minutes at 25° C. Reactions were initiated by addition of substrate to the plates containing the enzymes (+/−compounds) diluted in assay buffer. Reactions were incubated for 60 minutes at 37° C. Reactions were stopped by adding acetic acid (100 mM final). Readings were performed on a Pherastar Fluorescent Reader (BMG). λ Emission 380 nm; λ Excitation=460 nm. Data (mean values+/−standard deviation) were analyzed as % of control (no compound) and plotted as percentage versus the Log of the compound concentration using GraphPad (Prism). Data were fitted to a sigmoidal model (variable slope).

[2] = target: T2, UCH-L1 (Homo sapiens, UniProt P09936); assay: UCH-L1 activity assay (Ub-AMC); conditions: 300 nM Ub-AMC, 2.5 nM enzyme
T2 sequence (P09936 1-223): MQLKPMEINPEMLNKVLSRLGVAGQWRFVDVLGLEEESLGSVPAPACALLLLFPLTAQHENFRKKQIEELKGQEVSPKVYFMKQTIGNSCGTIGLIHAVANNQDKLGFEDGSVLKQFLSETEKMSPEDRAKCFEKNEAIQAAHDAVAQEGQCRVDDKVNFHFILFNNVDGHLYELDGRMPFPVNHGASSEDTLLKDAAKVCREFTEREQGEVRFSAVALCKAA
Method: UCH-L1 was diluted in USP buffer (50 mM Tris HCl; 0.5 mM EDTA; 5 mM DTT; 0.01% Triton X-100; Bovine Serum Albumin 0.05 mg·ml^−1 pH 7.6). Compounds stocks (100 mM) were stored at −20° C. in DMSO. Compounds were tested at different concentrations: from 200 μM to 91 nM.
as §1, with “UCH-L1” for “UCH-L3”, “(UCH-L1)” for “(UCH-L3)”, “2.5 nM.” for “13 pM.”

[3] = target: T3, Caspase 3 (Homo sapiens, UniProt P42574); assay: Caspase 3 activity assay (Ac-DEVD-AMC); conditions: 250 nM Ac-DEVD-AMC, 1.6 nM enzyme
T3 sequence (P42574 29-175 limits assumed): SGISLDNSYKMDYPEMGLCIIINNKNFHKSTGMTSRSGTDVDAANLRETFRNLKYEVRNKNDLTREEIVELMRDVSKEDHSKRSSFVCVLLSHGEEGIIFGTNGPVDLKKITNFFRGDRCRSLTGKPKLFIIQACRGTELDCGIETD
T3 sequence (P42574 176-277 limits assumed): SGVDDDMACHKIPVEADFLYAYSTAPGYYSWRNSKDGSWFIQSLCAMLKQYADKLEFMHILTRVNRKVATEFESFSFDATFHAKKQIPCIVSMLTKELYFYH
Method: Caspase 3 was diluted in Caspase 3 buffer (100 mM Hepes pH 7.5; 10% sucrose; 0.1% CHAPS). Compounds stocks (100 mM) were stored at −20° C. in DMSO. Compounds were tested at different concentrations: from 200 μM to 91 nM.
as §1, with “caspase 3 specificity assay” for “UCH-L3”, “250” for “300”, “(Ac-DEVD-AMC; Promega).” for “Ub-AMC (Boston Biochem).”, “(Caspase 3)” for “(UCH-L3)”, “1.6 nM.” for “13 pM.”

Measured: pIC50

CCCN(CCC)CCNC(=O)c1ccc2c(Cl)c3c(nc2c1)CCCC3 [Example 3, 9-Chloro-5,6,7,8-tetrahydro-acridine-3-carboxylic acid (2-dipropylamino-ethyl)-amide]
< 3.70: all assays above

CCN(CC)CCNC(=O)c1ccc2c(Cl)c3c(nc2c1)CCCC3 [Example 7, 9-Chloro-5,6,7,8-tetrahydro-acridine-3-carboxylic acid (2-diethylamino-ethyl)-amide]
< 3.70: all assays above

O=C(c1ccc2c(Cl)c3c(nc2c1)CCCC3)N1CCC(N2CCCCC2)CC1 [Example 16, [1,4′]Bipiperidinyl-1′-yl-(9-chloro-5,6,7,8-tetrahydro-acridin-3-yl)-methanone]
< 3.70: all assays above

CCN1CCCC1CNC(=O)c1ccc2c(Cl)c3c(nc2c1)CCCC3 (stereo not drawn) [Example 2, 9-Chloro-5,6,7,8-tetrahydro-acridine-3-carboxylic acid (1-ethyl-pyrrolidin-2-ylmethyl)-amide]
< 3.70: all assays above

CC1CCCC(C)N1CCCNC(=O)c1ccc2c(Cl)c3c(nc2c1)CCCC3 (stereo not drawn) [Example 9, 9-Chloro-5,6,7,8-tetrahydro-acridine-3-carboxylic acid [3-(2,6-dimethyl-piperidin-1-yl)-propyl]-amide]
< 3.70: all assays above

O=C(NCCCN1CCCC1)c1ccc2c(Cl)c3c(nc2c1)CCCC3 [Example 8, 9-Chloro-5,6,7,8-tetrahydro-acridine-3-carboxylic acid (3-pyrrolidin-1-yl-propyl)-amide]
< 3.70: all assays above

CCN(CCCNC(=O)c1ccc2c(Cl)c3c(nc2c1)CCCC3)Cc1ccccc1 [Example 5, 9-Chloro-5,6,7,8-tetrahydro-acridine-3-carboxylic acid [3-(benzyl-ethyl-amino)-propyl]-amide]
< 3.70: all assays above

CCCN(CCC)CCCNC(=O)c1ccc2c(Cl)c3c(nc2c1)CCCC3 [Example 6, 9-Chloro-5,6,7,8-tetrahydro-acridine-3-carboxylic acid (3-dipropylamino-propyl)-amide]
< 3.70: all assays above

CN(C)CCNC(=O)c1ccc2c(Cl)c3c(nc2c1)CCCC3 [Example 11, 9-Chloro-5,6,7,8-tetrahydro-acridine-3-carboxylic acid (2-dimethylamino-ethyl)-amide]
< 3.70: all assays above

CCN(CC)CCCNC(=O)c1ccc2c(Cl)c3c(nc2c1)CCCC3 [Example 10, 9-Chloro-5,6,7,8-tetrahydro-acridine-3-carboxylic acid (3-diethylamino-propyl)-amide]
< 3.70: all assays above

CN(CCCNC(=O)c1ccc2c(Cl)c3c(nc2c1)CCCC3)Cc1ccccc1 [Example 14, 9-Chloro-5,6,7,8-tetrahydro-acridine-3-carboxylic acid [3-(benzyl-methyl-amino)-propyl]-amide]
< 3.70: all assays above

O=C(c1ccc2c(Cl)c3c(nc2c1)CCCC3)N1CCCCCC1 [Example 12, Azepan-1-yl-(9-chloro-5,6,7,8-tetrahydro-acridin-3-yl)-methanone]
< 3.70: all assays above

CCCCN(CC)CCNC(=O)c1ccc2c(Cl)c3c(nc2c1)CCCC3 [Example 4, 9-Chloro-5,6,7,8-tetrahydro-acridine-3-carboxylic acid [2-(butyl-ethyl-amino)-ethyl]-amide]
< 3.70: all assays above

Cc1cccc(CN2CCC(CNC(=O)c3ccc4c(Cl)c5c(nc4c3)CCCC5)CC2)c1 [Example 1, 9-Chloro-5,6,7,8-tetrahydro-acridine-3-carboxylic acid [1-(3-methyl-benzyl)-piperidin-4-ylmethyl]-amide]
< 3.70: all assays above

CCCN1CCN(CCCNC(=O)c2ccc3c(Cl)c4c(nc3c2)CCCC4)CC1 [Example 13, 9-Chloro-5,6,7,8-tetrahydro-acridine-3-carboxylic acid [3-(4-propyl-piperazin-1-yl)-propyl]-amide]
< 3.70: all assays above

CN1CCN(CCCNC(=O)c2ccc3c(Cl)c4c(nc3c2)CCCC4)CC1 [Example 15, 9-Chloro-5,6,7,8-tetrahydro-acridine-3-carboxylic acid [3-(4-methyl-piperazin-1-yl)-propyl]-amide]
< 3.70: all assays above
